Results: patent publication US10219516B2, “Molecules having pesticidal utility, and intermediates, compositions, and processes, related thereto” (priority 2015, dated 2019)
Where two headings read alike, the source gives them in different places.

Key:
Format in all cases: in vivo
[1] = tested on: Beet Armyworm (Spodoptera exigua, LAPHEG); assay: Bioassay on Beet Armyworm (BAW), 128-well diet tray assay
Method in brief: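 Percent mortality, averaged across eight replicate wells, was scored after five to seven days at 25° C. under a 14:10 light-dark cycle. Each well's diet carried 50 μg/cm^2 of the dried test molecule and held one to five second instar larvae.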

[2] = tested on: Cabbage Looper (Trichoplusia ni, TRIPNI); assay: Bioassay on Cabbage Looper (CL), 128-well diet tray assay; conditions: Trichoplusia ni
Method in brief: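 Second-instar larvae, one to five per well, were placed on artificial diet surface-treated with 50 μg/cm^2 test molecule applied in 90:10 acetone-water and dried, eight wells per molecule. Trays were covered, vented and held at 25° C., 14:10 light-dark for five to seven days; percent mortality per well was averaged.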

[3] = tested on: Yellow Fever Mosquito (Aedes aegypti, AEDSAE); assay: Bioassay on Yellow Fever Mosquito (YFM), 96-well plate larval assay; conditions: for YFM (Biological Results, rating): Species YFM (Yellow Fever Mosquito); for YFM rating: Yellow Fever Mosquito, 96-well plate larval assay
Method in brief: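 Each well was scored for mortality after 3 days at room temperature under a non-evaporative lid. Test molecules came from DMSO masters (4000 ppm stock) diluted with water/acetone 90:10 and dispensed into six replicate plates, which were then infested with roughly 1-day-old larvae in liver-powder water.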

[4] = Species BAW (Beet Armyworm), read-out: BAW (Biological Results, rating)
[5] = Species CL (Cabbage Looper), read-out: CL (Biological Results, rating)
[6] = Beet Armyworm, 128-well diet tray assay, read-out: BAW rating
[7] = Cabbage Looper, 128-well diet tray assay, read-out: CL rating

Structure (SMILES) | pest or weed control at 50 µg/cm2 [1, 4] [%] | pest or weed control at 50 µg/cm2 [2, 5] [%] | YFM (Biological Results, rating) [3] | pest or weed control at 50 µg/cm2 [1, 6] [%] | pest or weed control at 50 µg/cm2 [2, 7] [%] | YFM rating [3]
Nc1cccc(NC(=O)c2cc(NC(=O)[C@H]3[C@H](c4ccc(F)c(Cl)c4)C3(Cl)Cl)ccc2Cl)n1 (relative stereo) [F327, N-(6-Aminopyridin-2-yl)-2-chloro-5-(trans-2,2-dichloro-3-(3-chloro-4-fluorophenyl)cyclopropane-1-carboxamido)benzamide] | 50 to 100 | 50 to 100 | A (80-100) | – | – | –
O=C(Nc1cncnc1)c1cc(NC(=O)[C@H]2[C@H](c3cc(Cl)cc(Cl)c3)C2(Cl)Cl)ccc1Cl (relative stereo) [F295, trans-2-Chloro-5-(2,2-dichloro-3-(3,5-dichlorophenyl)cyclopropane-1-carboxamido)-N-(pyrimidin-5-yl)benzamide] | 50 to 100 | 50 to 100 | A (80-100) | – | – | –
O=C(Nc1ccc(NC(=O)C(F)(F)F)cc1)c1cc(NC(=O)[C@H]2[C@H](c3cc(Cl)cc(Cl)c3)C2(Cl)Cl)ccc1Cl (relative stereo) [PF24, trans-2-chloro-5-(2,2-dichloro-3-(3,5-dichlorophenyl)cyclopropane-1-carboxamido)-N-(4-(2,2,2-trifluoroacetamido)phenyl)benzamide] | – | – | – | 50 to 100 | 50 to 100 | A (80-100)
O=C(Nc1ccc(F)cc1F)c1cc(NC(=O)C2C(c3cc(F)c(F)c(F)c3)C2(Cl)Cl)ccc1Cl (stereo not drawn) [F581, 2-Chloro-5-trans-(2,2-dichloro-3-(3,4,5-trifluorophenyl)cyclopropane-1-carboxamido)-N-(2,4-difluorophenyl)benzamide] | – | – | – | 50 to 100 | 50 to 100 | A (80-100)
CN(C(=O)c1cc(NC(=O)[C@H]2[C@H](c3cc(Cl)c(Cl)c(Cl)c3)C2(Cl)Cl)ccc1F)c1ccccc1 (relative stereo) [F68, trans-5-(2,2-Dichloro-3-(3,4,5-trichlorophenyl)cyclopropane-1-carboxamido)-2-fluoro-N-methyl-N-phenylbenzamide] | 50 to 100 | 50 to 100 | B (More than 0-Less than 80) | – | – | –
O=C(Nc1ccc2scnc2c1)c1cc(NC(=O)[C@H]2[C@H](c3cc(Cl)cc(Cl)c3)C2(Cl)Cl)ccc1Cl (relative stereo) [F482, trans-N-(Benzo[d]thiazol-5-yl)-2-chloro-5-(2,2-dichloro-3-(3,5-dichlorophenyl)cyclopropane-1-carboxamido)benzamide] | – | – | – | 50 to 100 | 50 to 100 | A (80-100)
O=C(Nc1ncc(F)cc1F)c1cc(NC(=O)[C@H]2[C@H](c3cc(F)cc(C(F)F)c3)C2(Cl)Cl)ccc1Cl (relative stereo) [F586, 2-Chloro-5-(trans-2,2-dichloro-3-(3-(difluoromethyl)-5-fluorophenyl)cyclopropane-1-carboxamido)-N-(3,5-difluoropyridin-2-yl)benzamide] | – | – | – | 50 to 100 | 50 to 100 | A (80-100)
Nc1cc(F)c(NC(=O)c2cc(NC(=O)[C@H]3[C@H](c4cc(Cl)cc(Cl)c4)C3(Cl)Cl)ccc2Cl)cc1F [F568, trans-N-(4-Amino-2,5-difluorophenyl)-2-chloro-5-((1R,3R)-2,2-dichloro-3-(3,5-dichlorophenyl)cyclopropane-1-carboxamido)benzamide] | – | – | – | 50 to 100 | 50 to 100 | A (80-100)
O=C(Nc1cc2cc[nH]c2cn1)c1cc(NC(=O)[C@H]2[C@H](c3cc(Cl)cc(Cl)c3)C2(Cl)Cl)ccc1Cl (relative stereo) [F474, 2-Chloro-5-(trans)-(2,2-dichloro-3-(3,5-dichlorophenyl)cyclopropane-1-carboxamido)-N-(1H-pyrrolo[2,3-c]pyridin-5-yl)benzamide] | – | – | – | 50 to 100 | 50 to 100 | A (80-100)
O=C(Nc1ccc(F)cc1F)c1cc(NC(=O)[C@H]2[C@H](c3ccc(C(F)F)c(Cl)c3)C2(Cl)Cl)ccc1Cl (relative stereo) [F562, 2-Chloro-5-(trans-2,2-dichloro-3-(3-chloro-4-(difluoromethyl)phenyl)cyclopropane-1-carboxamido)-N-(2,4-difluorophenyl)benzamide] | – | – | – | 50 to 100 | 50 to 100 | A (80-100)
Nc1c(F)cc(F)cc1NC(=O)c1cc(NC(=O)[C@H]2[C@H](c3cc(Cl)cc(Cl)c3)C2(Cl)Cl)ccc1Cl [F360, N-(2-Amino-3,5-difluorophenyl)-2-chloro-5-((1R,3R)-2,2-dichloro-3-(3,5-dichlorophenyl)cyclopropane-1-carboxamido)benzamide] | 50 to 100 | 50 to 100 | A (80-100) | – | – | –
Nc1c(F)cc(F)cc1NC(=O)c1cc(NC(=O)[C@H]2[C@H](c3ccc(Cl)c(Cl)c3)C2(Cl)Cl)ccc1Cl [F377, N-(2-Amino-3,5-difluorophenyl)-2-chloro-5-((1R,3R)-2,2-dichloro-3-(3,4-dichlorophenyl)cyclopropane-1-carboxamido)benzamide] | – | – | – | 50 to 100 | 50 to 100 | A (80-100)
CN(C(=O)c1cc(NC(=O)[C@H]2[C@H](c3cc(C(F)(F)F)cc(C(F)(F)F)c3)C2(Cl)Cl)ccc1Cl)c1ccc(F)cc1 (relative stereo) [F85, trans-5-(3-(3,5-Bis(trifluoromethyl)phenyl)-2,2-dichlorocyclopropane-1-carboxamido)-2-chloro-N-(4-fluorophenyl)-N-methylbenzamide] | 50 to 100 | 50 to 100 | A (80-100) | – | – | –
CC(=O)Nc1cccc(NC(=O)c2cc(NC(=O)[C@H]3[C@H](c4cc(Cl)cc(Cl)c4)C3(Cl)Cl)ccc2Cl)n1 (relative stereo) [F494, N-(6-Acetamidopyridin-2-yl)-2-chloro-5-(trans-2,2-dichloro-3-(3,5-dichlorophenyl)cyclopropane-1-carboxamido)benzamide] | – | – | – | 50 to 100 | 50 to 100 | A (80-100)
Cc1cc(N)ccc1NC(=O)c1cc(NC(=O)[C@H]2[C@H](c3cc(Cl)c(Cl)c(Cl)c3)C2(Cl)Cl)ccc1Cl (relative stereo) [F227, trans-N-(4-Amino-2-methylphenyl)-2-chloro-5-(2,2-dichloro-3-(3,4,5-trichlorophenyl)cyclopropane-1-carboxamido)benzamide] | 50 to 100 | 50 to 100 | A (80-100) | – | – | –
COC(=O)CNc1ccc(NC(=O)c2cc(NC(=O)[C@H]3[C@H](c4cc(Cl)cc(Cl)c4)C3(Cl)Cl)ccc2Cl)c(C)c1 (relative stereo) [F288, trans-methyl (4-(2-chloro-5-(2,2-dichloro-3-(3,5-dichlorophenyl)cyclopropane-1-carboxamido)benzamido)-3-methylphenyl)glycinate] | 50 to 100 | 50 to 100 | A (80-100) | – | – | –
CC(=O)Nc1ccc(NC(=O)c2cc(NC(=O)[C@H]3[C@H](c4ccc(F)c(Cl)c4)C3(Cl)Cl)ccc2Cl)cc1 (relative stereo) [F260, trans-N-(4-Acetamidophenyl)-2-chloro-5-(2,2-dichloro-3-(3-chloro-4-fluorophenyl)cyclopropane-1-carboxamido)benzamide] | 50 to 100 | 50 to 100 | A (80-100) | – | – | –
C#Cc1cc([C@H]2[C@H](C(=O)Nc3ccc(Cl)c(C(=O)Nc4ccc(F)cc4)c3)C2(Cl)Cl)ccc1Cl (relative stereo) [F410, 2-Chloro-5-(trans-2,2-dichloro-3-(4-chloro-3-ethynylphenyl)cyclopropane-1-carboxamido)-N-(4-fluorophenyl)benzamide] | – | – | – | 50 to 100 | 50 to 100 | A (80-100)
O=C(Nc1ccc(F)cc1)c1cc(Cl)cc(NC(=O)[C@H]2[C@H](c3cc(Cl)cc(Cl)c3)C2(Cl)Cl)c1 (relative stereo) [F136, trans-3-Chloro-5-(2,2-dichloro-3-(3,5-dichlorophenyl)cyclopropane-1-carboxamido)-N-(4-fluorophenyl)benzamide] | 50 to 100 | 50 to 100 | A (80-100) | – | – | –
Nc1cc(F)cc(F)c1NC(=O)c1cc(NC(=O)[C@H]2[C@H](c3cc(Cl)cc(Cl)c3)C2(Cl)Cl)ccc1Cl [F406, N-(2-Amino-4,6-difluorophenyl)-2-chloro-5-((1R,3R)-2,2-dichloro-3-(3,5-dichlorophenyl)cyclopropane-1-carboxamido)benzamide] | – | – | – | 50 to 100 | 50 to 100 | A (80-100)
Cc1cc(N2C(=O)C=CC2=O)ccc1NC(=O)c1cc(NC(=O)[C@H]2[C@H](c3cc(Cl)cc(Cl)c3)C2(Cl)Cl)ccc1Cl (relative stereo) [F480, 2-chloro-5-(trans-2,2-dichloro-3-(3,5-dichlorophenyl)cyclopropane-1-carboxamido)-N-(4-(2,5-dioxo-2,5-dihydro-1H-pyrrol-1-yl)-2-methylphenyl)benzamide] | – | – | – | 50 to 100 | 50 to 100 | A (80-100)
